We go through one molecule from patent publication US20070026478A1, “Hemiasterlin affinity probes and their uses” (WYETH, priority 2002, published 2007).

For one assay, the target named is T1, bovine MAP-rich tubulin (Bos taurus, UniProt P81947+Q6B856).
T1 construct: MAP-rich bovine brain tubulin (99% purity), Hela cell tubulin (90% purity); purchased Cytoskeleton (Denver, Colo.); host or cells: bovine brain
Put plainly: Tubulin polymerization assay in a cell-free system. The conditions noted are these: 0.3 μM compound. The format is biochemical. The protocol: In vitro tubulin polymerization assays were performed according to procedures that have been described elsewhere (Loganzo et al., Cancer Res. 2003, 63:1838-1845). Briefly, bovine MAP-rich tubulin (final concentration 1.5 mg/mL) was dissolved in cold PEM buffer containing 1 mM GTP (GPEM) and centrifuged at 12,000×g for 10 minutes at 4° C. The tubulin solution (100 μL/well) was added rapidly to wells of a low-volume, 96-well plate already containing duplicate aliquots (10 μL) of test compounds in GPEM. Final compound concentrations were 0.3 μM. Control wells contained the same final concentration of DMSO (0.3%). After initiation of the reaction, absorbance at 340 nm was measured every minute for 60 minutes at 24° C. using a SpectraMax Plus plate reader (Molecular Devices, Sunnyvale, Calif.). An increase in absorbance over time indicated an increase in turbidity resulting from tubulin polymerization.

For assay [1], the target named is T2, tubulin in KB-3-1 cell lysates (Homo sapiens, UniProt P07437+P68363).
T2 construct: a cytosolic preparation of KB-3-1 cell lysates (50 μg) or KB-3-1 cells (40,000 cells) were used in the place of purified tubulin; endogenous in cells; host or cells: KB-3-1 cells (cytosolic supernatant at 100,000 x g, or whole cells)
T2 sequence (P68363 whole entry): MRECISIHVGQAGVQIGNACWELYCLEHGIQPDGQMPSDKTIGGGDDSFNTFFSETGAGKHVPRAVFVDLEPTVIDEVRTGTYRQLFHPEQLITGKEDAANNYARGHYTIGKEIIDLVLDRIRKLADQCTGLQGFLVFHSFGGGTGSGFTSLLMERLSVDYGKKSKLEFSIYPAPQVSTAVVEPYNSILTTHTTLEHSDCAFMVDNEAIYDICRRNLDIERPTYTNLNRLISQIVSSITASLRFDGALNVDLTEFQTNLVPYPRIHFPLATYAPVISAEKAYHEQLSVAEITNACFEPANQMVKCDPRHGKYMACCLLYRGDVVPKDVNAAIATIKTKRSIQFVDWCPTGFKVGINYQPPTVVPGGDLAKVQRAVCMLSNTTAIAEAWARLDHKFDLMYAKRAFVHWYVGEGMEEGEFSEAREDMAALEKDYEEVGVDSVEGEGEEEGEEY
T2 sequence (P07437 whole entry): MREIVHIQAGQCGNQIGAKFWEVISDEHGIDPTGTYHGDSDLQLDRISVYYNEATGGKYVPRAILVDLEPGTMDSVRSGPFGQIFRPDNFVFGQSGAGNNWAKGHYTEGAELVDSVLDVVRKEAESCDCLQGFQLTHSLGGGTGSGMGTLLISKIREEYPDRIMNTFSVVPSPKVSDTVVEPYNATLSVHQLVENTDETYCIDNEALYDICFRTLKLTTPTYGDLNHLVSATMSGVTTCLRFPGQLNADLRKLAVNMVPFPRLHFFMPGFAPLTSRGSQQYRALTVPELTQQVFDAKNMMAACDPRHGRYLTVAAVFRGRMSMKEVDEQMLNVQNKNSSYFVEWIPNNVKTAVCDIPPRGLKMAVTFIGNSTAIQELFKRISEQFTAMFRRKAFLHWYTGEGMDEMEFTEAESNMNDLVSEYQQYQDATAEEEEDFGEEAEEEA
Put plainly: Probe 1 photolabeling in KB-3-1 cell lysates. The assay is classed as binding. The conditions noted are these: 250 μM non-radiolabeled, 2.5 μM [3H]-probe 1, KB-3-1 cell lysates (50 μg). Here is the method: FIG. 1B illustrates the labeling of KB-3-1 cell lysates (50 μg) (lanes 1 and 2) and purified bovine brain (BB) tubulin (5 μg) (lanes 3 and 4) incubated for 30 minutes at room temperature with 2.5 μM [^3H]-probe 1. Samples in lanes 1 and 3 were pre-incubated with 250 μM non-radiolabeled probe 1 prior to incubation with radiolabeled materials. Samples were analyzed as described in FIG. 1A. Lanes marked “M” are molecular weight markers in kDa.
Alternatively, a cytosolic preparation of KB-3-1 cell lysates (50 μg) or KB-3-1 cells (40,000 cells) were used in the place of purified tubulin above. The supernatant of mechanically disrupted cells centrifuged at 100,000×g was used as a cytosolic preparation. K-3-1 cells were prepared by growing KB-3-1 cells in a 96-well plate and rinsing them with serum free medium. For experiments with whole cells, 250 μM HTI-286 was used as the competitor molecule during pre-incubation at 37° C. for 15 minutes.

T1 sequence (P81947 whole entry): as the sequence (P68363 whole entry) above
T1 sequence (Q6B856 whole entry): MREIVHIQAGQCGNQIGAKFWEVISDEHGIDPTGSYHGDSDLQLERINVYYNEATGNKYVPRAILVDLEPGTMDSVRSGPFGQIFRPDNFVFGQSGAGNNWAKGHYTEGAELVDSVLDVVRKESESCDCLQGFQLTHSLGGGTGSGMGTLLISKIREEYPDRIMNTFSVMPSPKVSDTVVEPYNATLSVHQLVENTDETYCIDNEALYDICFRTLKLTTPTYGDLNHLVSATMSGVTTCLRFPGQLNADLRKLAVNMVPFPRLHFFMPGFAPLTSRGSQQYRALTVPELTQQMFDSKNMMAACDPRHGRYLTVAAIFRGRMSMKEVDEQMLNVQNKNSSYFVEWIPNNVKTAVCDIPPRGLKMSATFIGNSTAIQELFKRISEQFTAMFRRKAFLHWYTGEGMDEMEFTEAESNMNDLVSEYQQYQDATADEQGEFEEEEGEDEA

Turning to `CN[C@H](C(=O)N[C@H](C(=O)N(C)[C@H](/C=C(\C)C(=O)O)C(C)C)C(C)(C)C)C(C)(C)c1ccc(C(=O)c2ccccc2)cc1` [Probe 1, 4-benzoyl-N,β,β-trimethyl-L-phenylalanyl-N^1-[(1S,2E)-3-carboxy-1-isopropylbut-2-enyl]-N^1,3-dimethyl-L-valinamide], at bovine MAP-rich tubulin, the inhibition at 0.3 µM was found to be 88%. In addition, the “inhibition of radiolabeled Probe 1 binding in cell lysates” value in assay [1] is given as “can inhibit the binding of radiolabled Probe 1”.
